Key:
[1] = tested on: human colon cancer cell line SW620; assay: Soft agar growth (anchorage independent growth) of transfected SW620 cells; type: cell-based; conditions: SW620 cells transfected with antisense oligonucleotide; versus reverse control; FIG. 1
From the text: The antisense oligonucleotides (SEQ IDNO:17), (SEQ IDNO:4), and (SEQ ID NO:1) were each transfected into the human colon cancer cell line SW620. Additionally, the same colon cancer cell line was transfected with the corresponding reverse control sequences (respectively SEQ ID NO:35, SEQ ID NO:22 and SEQ ID NO:19). […] These assay results contained in FIG. 1 indicate that the synthesized kinesin antisense oligonucleotides inhibit tumorigenesis.

SW620 cells [2] = assay: LDH cytotoxicity assay, alone and with cisplatinum; type: cell-based, human; conditions: FIG. 4
Procedure: LDH cytotoxicity assays were performed to determine the effect of antisense oligonucleotides on SW620 cell death alone and in the presence of the chemotherapeutic drug cisplatinum. […] Also, the same LDH cytotoxicity assays were performed on MRC9 cells transfected with the same oligonucleotides in the presence or absence of cisplatinum.

SW620 cells [3] = assay: Cell cycle profile by FACS analysis of propidium iodide stained cells; type: cell-based, human; conditions: SW620 cells transiently transfected; FIG. 2
Procedure: SW620 cells were transiently transfected with antisense oligonucleotides according to the invention and the effect on cell cycle profile evaluated by FACS analysis of propidium iodide stained cells. It was observed that cell tested antisense oligonucleotides arrested cells in G2/M phase to different degrees. […] Also, the effect of the same antisense oligonucleotides on the cell cycle of normal human filonblasts was tested.

“TGGATAAATTGCCTGGAATCAGCGC (chemistry not given here) [SEQ ID NO:17]” was tested, and the “capability of the cells to grow in soft agar (anchorage independent growth)” value (“capability of the cells to grow” below) [1] was “significantly inhibited” and the “cytotoxicity (LDH) in combination with cisplatinum” value (SW620 cells [2]; in combination with the chemotherapeutic drug cisplatinum) was “increase in cytotoxicity”.
With “GTTGATCTGGGCTCGCAGAGGTAAT (chemistry not given here) [SEQ ID NO:4]” the “capability of the cells to grow” value [1] was “significantly inhibited” and the “cell death (LDH cytotoxicity), oligonucleotide alone” value (SW620 cells [2]) was “induced death”.
In the case of “CCTCCGCCATCCTATCAGGCTGAA (chemistry not given here) [SEQ ID NO:1]”, the “capability of the cells to grow” value [1] is reported as “significantly inhibited”, the “cell cycle arrest in G2/M phase” value (SW620 cells [3]) is reported as “next best inhibiting effect” and the “cell death (LDH cytotoxicity), oligonucleotide alone” value (SW620 cells [2]) is reported as “did not induce cytotoxicity”.
